The conditions of data set [1]: DSC.
The nature of data set [2]: Molar enthalpy of transition or fusion. The note with it: DSC.

Numbers after ± are expanded uncertainties.

As for `CC(C)(C)CO` [2,2-dimethyl-1-propanol], the Triple point temperature is listed as 329.2 ± 1.2 K in data set [1] (Crystal 1) and 237.5 ± 1.2 K in data set [1] (Crystal 2). The “Molar enthalpy of transition or fusion” value in data set [2] (Crystal 1) worked out at 3.92 ± 0.48 kJ/mol; in data set [2] (Crystal 2) it was 4.15 ± 0.48 kJ/mol.
Turning to `CC(C)(C)Cl` [2-chloro-2-methylpropane], the Triple point temperature in data set [1] (Crystal 1) was 244.4 ± 1.2 K; in data set [1] (Crystal 2), 219.5 ± 1.2 K; in data set [1] (Crystal 3) it was 217.7 ± 1.2 K; in data set [1] (Crystal 4) it was 184.8 ± 1.2 K.
As to `ClC(Cl)(Cl)Cl` [tetrachloromethane], the Triple point temperature in data set [1] (Crystal 1) is listed as 250.4 ± 1.2 K; in data set [1] (Crystal 2), 226.1 ± 1.2 K; in data set [1] (Metastable crystal) it was 245.2 ± 1.2 K.
